Source: patent US20160222014A1, “COMPOUNDS FOR REGULATING FAK AND/OR SRC PATHWAYS” (ASANA BIOSCIENCES, LLC, priority 2013, published 2016)

Legend:
[1] = biological target: T1, recombinant human FAK1 (Homo sapiens, UniProt Q05397); assay: FAK1 HTRF assay; format: biochemical
T1 construct: fused on or other part: N-terminal 6xHis tag
Procedure, shortened: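 His-tagged human FAK1 (residues 692–end, Sf9-expressed), 10 nM final, with 0.5 μM biotinylated gastrin-precursor Tyr87 peptide and a 10 μM final reagent in pH 7.4 buffer, 45 min at rt. Detection used Eu anti-pTyr antibody plus SA-APC (665/620 nm). Compounds top concentration 10 μM; IC50 from % inhibition.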

[2] = biological target: T2, AURKB (Aurora B) enzyme (Homo sapiens, UniProt Q96GD4); assay: Aurora B HTRF assay; format: biochemical; conditions: read-out: AuroraB IC50
T2 construct: purchased Invitrogen PVR 130
T2 sequence (Q96GD4 whole entry): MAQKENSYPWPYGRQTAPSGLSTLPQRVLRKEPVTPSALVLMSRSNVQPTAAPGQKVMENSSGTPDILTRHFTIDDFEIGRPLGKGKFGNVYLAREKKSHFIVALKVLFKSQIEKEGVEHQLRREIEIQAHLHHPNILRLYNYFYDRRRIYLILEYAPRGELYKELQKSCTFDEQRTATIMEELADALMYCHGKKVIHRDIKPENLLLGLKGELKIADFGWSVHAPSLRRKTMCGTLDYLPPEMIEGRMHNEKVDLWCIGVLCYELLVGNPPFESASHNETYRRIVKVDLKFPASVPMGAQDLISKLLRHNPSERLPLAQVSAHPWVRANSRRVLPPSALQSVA
Procedure, shortened: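 HTRF kinase assay with 5 nM Aurora B and 50 nM ULight-PLK (Ser137) peptide, with a reagent at 30 μM final; 1 h at rt. Reaction stopped with EDTA, and phospho-peptide detected with 2 nM Eu-anti-P-PLK(Ser137) antibody after 1 h at rt, read as HTRF.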

[3] = biological target: T3, Phospho Src(Y416) (Homo sapiens, UniProt P12931); assay: Phospho Src(Y416) Sandwich ELISA; format: cell-based; conditions: Panc1; read-out: pSrc EC50 (μM) Panc1
T3 construct: endogenous in cells; host or cells: Panc1
T3 sequence (P12931 whole entry): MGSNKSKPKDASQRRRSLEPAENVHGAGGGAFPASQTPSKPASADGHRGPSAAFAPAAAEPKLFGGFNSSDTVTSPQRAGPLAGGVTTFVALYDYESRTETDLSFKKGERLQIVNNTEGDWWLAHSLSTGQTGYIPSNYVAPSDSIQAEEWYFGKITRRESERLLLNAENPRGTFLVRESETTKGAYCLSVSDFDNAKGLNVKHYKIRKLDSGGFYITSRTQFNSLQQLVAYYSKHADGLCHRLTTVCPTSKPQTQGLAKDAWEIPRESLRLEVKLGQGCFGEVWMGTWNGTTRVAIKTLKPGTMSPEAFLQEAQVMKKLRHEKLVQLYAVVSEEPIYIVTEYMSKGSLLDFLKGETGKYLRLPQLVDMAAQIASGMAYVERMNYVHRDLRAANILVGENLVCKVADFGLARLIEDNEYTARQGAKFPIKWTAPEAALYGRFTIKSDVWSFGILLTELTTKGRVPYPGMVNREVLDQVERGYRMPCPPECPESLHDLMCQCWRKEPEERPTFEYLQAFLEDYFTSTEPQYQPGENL
Protocol: E. Phospho Src(Y416) Sandwich ELISA
Phospho Src(Y416) Sandwich ELISA kit was obtained from Cell Signaling Tech.
(i) Reagent Preparation • 1. All microwell strips were brought to rt before use. • 2. 1× Wash Buffer was prepared by diluting 20× Wash Buffer (included in each PathScan® Sandwich ELISA Kit) in MilliQ® water or equivalently purified water. • 3. 1× Cell Lysis Buffer from CST #9803: 20 mM Tris (pH 7.5), 150 mM NaCl, 1 mM ethylene diamine tetraacetate (EDTA), 1 mM ethylene glycol-bis(2-aminoethyl)-N,N,N′,N′-tetraacetic acid (EGTA), 1% Triton™ X-100, 2.5 mM sodium pyrophosphate, 1 mM b-glycerophosphate, 1 mM Na3VO4, 1 μg/mL leupeptin. This buffer was stored at 4° C. for short-term use (1-2 weeks).
(ii) Preparing Cell Lysates • 1. The media was aspirated. The cells were treated by adding fresh media containing inhibitor for 1 h. The compound of Example 214 was used as reference. • 2. The cells were harvested under non-denaturing conditions by removing media and rinsing cells once with ice-cold PBS. • 3. PBS was removed, 0.5 mL ice-cold 1× Cell Lysis Buffer plus 1 mM phenylmethylsulfonylfluoride (PMSF) was added to each plate (10 cm in diameter) and the plate incubated on ice for 5 min. • 4. The cells were scraped off of the plate, transferred to an appropriate tube, and kept on ice. • 5. The lysates were sonicated on ice. • 6. Microcentrifugation was performed for 10 min at 4° C. and the supernatant transferred to a new tube. The supernatant was the cell lysate and was stored at −80° C. in single-use aliquots.
(iii) Test Procedure • 1. After the microwell strips reached rt, the required number of microwells were broken off. The microwells were placed in the strip holder. Unused microwells were resealed and stored at 4° C. immediately. • 2. 100 μL of Sample Diluent (supplied in each PathScan® Sandwich ELISA Kit, blue color) was added to a micro centrifuge tube. 100 μL of cell lysate was transferred into the tube and vortexed for a few seconds. […] Individual data sheets for each kit provided information regarding an appropriate dilution factor for lysates and kit assay results. However, dilution factors were titrated when specific cell lysates are used. • 3. 100 μL of each diluted cell lysate were added to the appropriate well. It was then sealed with tape and pressed firmly onto top of microwells. The plate was incubated for 2 h at 37° C. Alternatively, the plate was incubated overnight at 4° C., which gave the best detection of target protein. • 4. The tape was gently removed and the wells washed: • a. The plate contents were discarded into a receptacle. • b. Each well was washed 4 times with 1× Wash Buffer, 200 μL. • c. For each wash, plates were struck on fresh towels hard enough to remove the residual solution in each well, but wells were not allowed to completely dry at any time. • d. The underside of all wells was cleaned with a lint-free tissue. • 5. 100 μL of Detection Antibody (green color) was added to each well, sealed with tape and the plate incubated for 1 h at 37° C. • 6. The wash procedure was repeated as in Step 4. • 7. 100 μL of HRP-linked secondary antibody (red color) was added to each well, sealed with tape and the plate incubated plate for 30 min at 37° C. • 8. The wash procedure was repeated as in Step 4. • 9. 100 μL of TMB Substrate was added to each well, sealed with tape and the plate incubated for 10 min at 37° C. or 30 min at 25° C. • 10. 100 μL of STOP Solution was added to each well and shaken gently for a few seconds. Initial color of positive reaction was blue, which changed to yellow upon addition of STOP Solution. • 11. The results were read. • a. Visual Determination—read within 30 min after adding STOP Solution. • b. Spectrophotometric Determination—the underside of wells were wiped with a lint-free tissue and absorbance read at 450 nm within 30 min after adding STOP Solution.

[4] = biological target: T4, Recombinant Src enzyme (Homo sapiens, UniProt P12931); assay: Src HTRF assay; format: biochemical
T4 construct: purchased Millipore 14-326; host or cells: Sf21 insect cells
T4 sequence (P12931 whole entry): as above
Procedure, shortened: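 Sf21-expressed recombinant Src at 5 nM final with biotinylated N-terminally tagged Tyk2 peptide substrate at 0.5 μM final; a component freshly made in enzyme assay buffer pH7.4 was used at 10 μM final. Buffer, supplements, compound handling and procedure as in the FAK HTRF assay; dasatinib included.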

[5] = biological target: JAK2 (Homo sapiens, UniProt O60674); assay: JAK2 biochemical potency; conditions: read-out: JAK2 HTRF IC50
Chain of JAK2 (O60674 whole entry, species assumed): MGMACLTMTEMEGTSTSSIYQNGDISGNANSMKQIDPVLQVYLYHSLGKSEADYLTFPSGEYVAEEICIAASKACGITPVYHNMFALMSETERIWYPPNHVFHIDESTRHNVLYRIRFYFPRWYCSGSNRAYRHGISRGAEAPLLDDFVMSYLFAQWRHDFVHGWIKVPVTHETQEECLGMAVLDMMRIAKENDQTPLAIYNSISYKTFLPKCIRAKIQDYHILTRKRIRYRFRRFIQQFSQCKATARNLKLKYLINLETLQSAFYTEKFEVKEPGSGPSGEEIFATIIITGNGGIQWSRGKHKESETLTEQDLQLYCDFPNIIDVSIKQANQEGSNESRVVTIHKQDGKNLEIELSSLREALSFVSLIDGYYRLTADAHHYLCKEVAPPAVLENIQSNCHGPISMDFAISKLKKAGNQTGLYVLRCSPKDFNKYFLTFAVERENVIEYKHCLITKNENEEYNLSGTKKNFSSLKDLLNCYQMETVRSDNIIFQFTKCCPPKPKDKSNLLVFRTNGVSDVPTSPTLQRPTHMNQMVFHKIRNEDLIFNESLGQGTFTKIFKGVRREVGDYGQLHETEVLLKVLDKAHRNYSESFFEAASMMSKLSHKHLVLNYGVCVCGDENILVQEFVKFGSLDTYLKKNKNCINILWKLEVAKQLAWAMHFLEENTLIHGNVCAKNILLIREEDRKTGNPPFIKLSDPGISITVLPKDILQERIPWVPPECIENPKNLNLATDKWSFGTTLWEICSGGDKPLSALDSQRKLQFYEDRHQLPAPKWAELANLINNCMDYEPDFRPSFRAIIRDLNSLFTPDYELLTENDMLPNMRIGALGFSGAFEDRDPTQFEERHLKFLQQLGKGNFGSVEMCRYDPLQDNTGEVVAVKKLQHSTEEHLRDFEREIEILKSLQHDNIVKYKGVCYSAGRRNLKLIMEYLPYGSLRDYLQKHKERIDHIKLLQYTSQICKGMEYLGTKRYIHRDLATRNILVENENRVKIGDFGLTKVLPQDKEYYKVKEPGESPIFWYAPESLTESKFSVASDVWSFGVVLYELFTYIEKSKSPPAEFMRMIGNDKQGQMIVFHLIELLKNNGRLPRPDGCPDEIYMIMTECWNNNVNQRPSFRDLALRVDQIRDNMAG

[6] = biological target: T5, FAK phosphorylated at Y397 in HEK-FAK cell line overexpressing human FL FAK protein (Homo sapiens, UniProt Q05397); assay: Cell based assay, Phospho-FAK ELISA; conditions: HEK stb; read-out: pFAK EC50 (μM) HEK stb
T5 construct: expressed in transfected cells
T5 sequence (Q05397 whole entry): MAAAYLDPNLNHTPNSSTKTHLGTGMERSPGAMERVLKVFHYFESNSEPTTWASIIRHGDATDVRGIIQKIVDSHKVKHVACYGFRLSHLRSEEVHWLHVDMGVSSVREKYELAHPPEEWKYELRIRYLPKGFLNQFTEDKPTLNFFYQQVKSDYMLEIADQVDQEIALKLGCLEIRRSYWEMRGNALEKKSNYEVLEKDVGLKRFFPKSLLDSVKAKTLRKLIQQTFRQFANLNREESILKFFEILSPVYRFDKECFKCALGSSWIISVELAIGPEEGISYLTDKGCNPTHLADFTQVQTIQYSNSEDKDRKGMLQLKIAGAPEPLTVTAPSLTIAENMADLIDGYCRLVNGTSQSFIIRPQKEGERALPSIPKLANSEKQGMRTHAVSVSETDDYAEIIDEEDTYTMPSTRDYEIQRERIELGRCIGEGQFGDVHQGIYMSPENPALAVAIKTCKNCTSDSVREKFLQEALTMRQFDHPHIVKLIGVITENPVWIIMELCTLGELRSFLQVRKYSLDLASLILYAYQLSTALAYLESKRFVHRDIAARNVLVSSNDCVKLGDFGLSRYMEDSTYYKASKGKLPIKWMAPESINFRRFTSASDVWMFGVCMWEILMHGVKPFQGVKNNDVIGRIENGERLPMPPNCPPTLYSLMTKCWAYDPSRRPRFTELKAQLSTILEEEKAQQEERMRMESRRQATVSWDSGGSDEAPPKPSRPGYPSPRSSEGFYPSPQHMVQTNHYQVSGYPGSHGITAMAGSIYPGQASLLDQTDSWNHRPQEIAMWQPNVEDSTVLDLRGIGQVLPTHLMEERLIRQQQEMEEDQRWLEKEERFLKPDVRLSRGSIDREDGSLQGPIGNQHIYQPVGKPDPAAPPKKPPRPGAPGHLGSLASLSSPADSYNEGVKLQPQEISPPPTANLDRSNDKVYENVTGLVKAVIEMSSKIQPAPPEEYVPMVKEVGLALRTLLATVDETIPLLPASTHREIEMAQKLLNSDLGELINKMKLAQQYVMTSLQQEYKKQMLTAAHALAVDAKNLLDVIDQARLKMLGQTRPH
Procedure, shortened: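 Stable HEK293 line overexpressing full-length human FAK, kept under 0.8 mg/mL Zeocin. In lysates, FAK Y397 autophosphorylation was measured by sandwich ELISA: total-FAK capture antibody, biotinylated pY397-specific detection antibody, streptavidin-HRP with TMB substrate.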

T1 sequence (Q05397 422-680 limits assumed): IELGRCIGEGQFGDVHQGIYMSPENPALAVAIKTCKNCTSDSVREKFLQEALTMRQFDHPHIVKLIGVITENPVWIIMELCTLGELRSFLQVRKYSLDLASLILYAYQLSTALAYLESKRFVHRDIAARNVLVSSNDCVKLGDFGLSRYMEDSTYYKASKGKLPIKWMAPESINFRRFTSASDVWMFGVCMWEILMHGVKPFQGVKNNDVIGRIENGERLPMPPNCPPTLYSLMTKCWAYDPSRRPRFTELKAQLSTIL

Compound | IC50 [1] [µM] | IC50 [2] [µM] | EC50 [3] [µM] | IC50 [4] [µM] | IC50 [5] [µM] | EC50 [6] [µM]
CN(c1ccccc1Cn1ccc2cnc(Nc3ccc(N4CCC(O)CC4)cc3)nc21)S(C)(=O)=O [Example 434] | < 0.02 | < 0.02 | > 1 | – | – | –
COc1cc(Nc2ncc3ccn(S(=O)(=O)c4cccc5cccnc45)c3n2)ccc1N1CCOCC1 [Example 432] | < 0.02 | – | > 1 | – | – | –
O=S(=O)(c1ccccc1)n1ccc2cnc(Nc3ccc(N4CCNCC4)cc3)nc21 [Example 224] | – | < 0.02 | – | < 0.02 | < 0.02 | > 1
N#Cc1ccccc1S(=O)(=O)n1ccc2cnc(Nc3ccc(N4CCNCC4)cc3)nc21 [Example 185] | < 0.02 | < 0.02 | – | – | < 0.02 | > 1
O=S(=O)(c1cccc2cccnc12)n1ncc2cnc(Nc3ccc(N4CCC(O)CC4)cc3)nc21 [Example 411] | < 0.02 | – | > 1 | – | – | –
O=S(=O)(c1cccc2cccnc12)n1ccc2cnc(Nc3ccc(N4CCNCC4)cc3OC3CCC3)nc21 [Example 358] | > 1 | – | – | > 1 | > 1 | > 1
O=C1CCc2cc(Nc3cc4c(ccn4S(=O)(=O)c4ccccc4OC(F)(F)F)cn3)ccc2N1 [Example 59] | – | > 1 | – | > 1 | > 1 | > 1
O=C1CCc2cc(Nc3ncc4ccn(S(=O)(=O)c5ccccc5OC(F)F)c4n3)ccc2N1 [Example 151] | < 0.02 | – | > 1 | – | – | –
CN(c1ccccc1Cn1ccc2cnc(Nc3ccc4[nH]c(=O)oc4c3)nc21)S(C)(=O)=O [Example 457] | – | – | > 1 | – | – | –
C[C@@H]1CN(c2ccc(Nc3ncc4ccn(S(=O)(=O)c5ccccc5C#N)c4n3)cc2)CCN1 [Example 243] | – | < 0.02 | – | – | < 0.02 | > 1
CC(=O)OC1CCN(c2ccc(Nc3ncc4ccn(S(=O)(=O)c5cccc6cccnc56)c4n3)cc2)CC1 [Example 454] | < 0.02 | – | > 1 | – | – | –
Cc1cc(Nc2ncc3cnn(S(=O)(=O)c4cccc5cccnc45)c3n2)ccc1N1CCC(O)CC1 [Example 406] | < 0.02 | – | > 1 | – | – | –
C[C@H]1CN(c2ccc(Nc3ncc4c(n3)N(S(=O)(=O)c3cccc5cccnc35)CC4(C)C)cc2)CCN1 [Example 473] | < 0.02 | – | > 1 | – | – | –
CN(C)S(=O)(=O)c1ccccc1Cn1ncc2cnc(Nc3ccc4c(c3)CCC(=O)N4)cc21 [Example 204] | < 0.02 | < 0.02 | – | – | < 0.02 | > 1
CN(c1ccccc1Cn1ccc2cnc(Nc3ccc4c(c3)OCC(=O)N4)nc21)S(C)(=O)=O [Example 539] | < 0.02 | – | > 1 | – | – | –
COc1cc(N2CCNCC2)ccc1Nc1cc2c(cn1)cnn2S(=O)(=O)c1cccc2cccnc12 [Example 338, N-(2-methoxy-4-(piperazin-1-yl)phenyl)-1-(quinolin-8-ylsulfonyl)-1H-pyrazolo[4,3-c]pyridin-6-amine] | < 0.02 | – | – | > 1 | > 1 | < 0.02
CC(=O)N1CCN(c2ccc(Nc3ncc4ccn(Cc5ccccc5N(C)S(C)(=O)=O)c4n3)cc2)C[C@H]1C [Example 458] | < 0.02 | – | > 1 | – | – | –
COc1ccccc1Nc1ncc2ccn(Cc3cccnc3N(C)S(C)(=O)=O)c2n1 [Example 154] | – | > 1 | – | > 1 | > 1 | > 1
CN(c1ncccc1Cn1ccc2cnc(Nc3ccc(N4CCN5C(=O)CCC5C4)cc3)nc21)S(C)(=O)=O (stereo not drawn) [Example 408] | – | < 0.02 | > 1 | – | – | –
O=S(=O)(c1ccccc1)n1ncc2cnc(Nc3ccc(N4CCNCC4)cc3)nc21 [Example 255] | – | – | < 0.02 | – | – | –
COc1ccccc1S(=O)(=O)n1ccc2cnc(Nc3ccc(N4CCN(C(=O)C5CC5)CC4)cc3)nc21 [Example 350] | < 0.02 | – | > 1 | – | – | –
CC(=O)N1CCN(c2ccc(Nc3ncc4ccn(S(=O)(=O)c5cccc6cccnc56)c4n3)cc2)C[C@@H]1C [Example 449] | < 0.02 | – | > 1 | – | – | –
CC(=O)OC1CCN(c2ccc(Nc3ncc4c(n3)N(S(=O)(=O)c3cccc5cccnc35)CC4(C)C)cc2)CC1 [Example 453] | – | – | > 1 | – | – | –
CN(c1ccccc1Cn1ccc2cnc(Nc3ccc(N4CCCC(O)C4)cc3)nc21)S(C)(=O)=O (stereo not drawn) [Example 750] | < 0.02 | – | > 1 | – | – | –
CN(c1ccccc1Cn1ccc2cnc(Nc3ccc(C4CNC(=O)CO4)cc3)nc21)S(C)(=O)=O (stereo not drawn) [Example 676] | – | < 0.02 | > 1 | – | – | –
N#Cc1ccccc1S(=O)(=O)n1ccc2cnc(Nc3ccc(C4CCN(CC(N)=O)CC4)cc3)nc21 [Example 251] | – | < 0.02 | > 1 | – | – | –
CN(c1ncccc1Cn1ccc2cnc(Nc3ccc(N4CCCC(O)C4)cc3)nc21)S(C)(=O)=O (stereo not drawn) [Example 753] | – | – | > 1 | – | – | –
C[C@H]1CN(c2ccc(Nc3ncc4ccn(S(=O)(=O)c5cccc(C#N)c5)c4n3)cc2)CCN1 [Example 306] | – | < 0.02 | – | – | < 0.02 | > 1
